Measurements published in patent publication US9150505B2, “Prophylactic or therapeutic agent for diabetes or obesity” (AJINOMOTO CO., INC., priority 2010, dated 2015).
Structures can show the parent of a compound that is named as a salt.

Target: T1, human CaSR (Homo sapiens, UniProt P41180)
T1 construct: expressed in transfected cells; host or cells: 293E cells (EBNA1-expressing HEK293, ATCC No. CRL-10852), transient transfection of hCaSR/pcDNA3.1
T1 sequence (P41180 20-1078): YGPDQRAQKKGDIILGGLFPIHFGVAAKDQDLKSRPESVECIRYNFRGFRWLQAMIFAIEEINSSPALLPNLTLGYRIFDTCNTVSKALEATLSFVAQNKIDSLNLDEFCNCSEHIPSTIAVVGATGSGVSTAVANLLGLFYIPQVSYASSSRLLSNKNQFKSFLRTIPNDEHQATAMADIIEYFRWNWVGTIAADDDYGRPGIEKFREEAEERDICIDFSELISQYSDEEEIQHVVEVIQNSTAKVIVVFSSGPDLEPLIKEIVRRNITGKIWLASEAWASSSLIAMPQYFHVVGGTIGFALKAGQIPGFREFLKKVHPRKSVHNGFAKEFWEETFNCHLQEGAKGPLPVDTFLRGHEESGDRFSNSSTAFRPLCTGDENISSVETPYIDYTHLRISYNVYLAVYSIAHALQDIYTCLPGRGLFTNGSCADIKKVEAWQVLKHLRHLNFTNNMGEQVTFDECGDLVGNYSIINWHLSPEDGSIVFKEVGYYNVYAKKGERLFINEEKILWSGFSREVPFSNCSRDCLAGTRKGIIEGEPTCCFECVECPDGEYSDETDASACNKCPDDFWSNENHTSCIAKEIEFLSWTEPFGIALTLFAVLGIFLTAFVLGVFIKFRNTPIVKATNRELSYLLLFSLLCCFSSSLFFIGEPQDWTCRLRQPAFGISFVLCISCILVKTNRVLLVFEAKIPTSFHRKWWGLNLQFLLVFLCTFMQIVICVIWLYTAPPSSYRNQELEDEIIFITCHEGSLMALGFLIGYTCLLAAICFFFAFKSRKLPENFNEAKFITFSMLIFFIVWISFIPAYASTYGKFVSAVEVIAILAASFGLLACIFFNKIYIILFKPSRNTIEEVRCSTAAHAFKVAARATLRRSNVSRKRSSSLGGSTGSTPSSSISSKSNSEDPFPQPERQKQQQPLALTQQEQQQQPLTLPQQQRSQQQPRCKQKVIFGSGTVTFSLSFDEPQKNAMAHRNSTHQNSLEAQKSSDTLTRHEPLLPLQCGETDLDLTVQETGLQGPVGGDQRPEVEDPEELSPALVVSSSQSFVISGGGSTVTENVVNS
Assay: Assessment of CaSR agonistic activity (Ca2+ fluorescence, FLIPR, hCaSR-transfected 293E cells)
Type: cell-based
Details: human CaSR-expressing 293E cells, 1.5 mM CaCl2 assay buffer, 3-minute change in fluorescence intensity
Protocol: CaSR gene was prepared according to the method described in Example 1 of WO07/55393. The resulting recombinant plasmid was used to generate human CaSR-expressing plasmid hCaSR/pcDNA3.1.
293E cells (EBNA1-expressing IIEK293 cells, ATCC No. CRL-10852) were cultured in DMEM ([…] Glucose-containing Dulbecco's modified Eagle medium, Nacalai Tesque) containing 10% bovine fetal serum in the presence of 250 μg/ml of G418. The cells were seeded on a 10 cm-diameter petri dish at 1.8×10^6 cells/15 ml, and left to stand in a CO2 incubator (5% CO2, 37° C.) for 24 hours. Thereafter, human CaSR expression plasmid hCaSR/pcDNA3.1 was transfected with transfection reagent Mirus Trans IT 293 (Takara Bio). Following static culture in a CO2 incubator for 24 hours, the cells were harvested with 10% bovine fetal serum-containing DMEM and seeded on a poly-D-lysine coat 384 well plate (Falcon) at 15,000 cells/well. Following static culture in a CO2 incubator for 24 hours, the medium was removed and the resultant was added with 50 μl/well of Ca^2+ fluorescent indicator Calcium 4 Assay Kit (Molecular Devices) dissolved in an assay buffer (146 mM NaCl, 5 mM KCl, 1 mM MgSO4, 1 mg/ml Glucose, 20 mM HEPES (PH 7.2), 1.5 mM CaCl2), and left to stand at 37° C. for an hour and then at room temperature for 30 minutes to allow intake of the indicator. The above-mentioned 384-well plate was transferred to FLIPR (Molecular Devices) and added with 12.5 μl/well of a compound dissolved in a 0.1% BSA-containing assay buffer to measure 3-minute change in the fluorescence intensity.
The difference between maximum and minimum fluorescence intensities before and after compound addition (RFU (Max−Min)) was determined by FLIPR automatic calculation. An activity rate was calculated where RFU (Max−Min) upon addition of a compound at a maximum concentration was defined 100% and RFU (Max−Min) upon addition of DMSO as a substitute for the compound at the same concentration was defined 0%. The rate was subjected to curve fitting using spreadsheet software Xfit to determine EC50 value, i.e., a compound concentration upon 50% activity rate.

SMILES	EC50 [nM]
CN(C)[C@@H](CCC(=O)Nc1cc(Cl)cc(S(=O)(=O)O)c1O)C(=O)O [Example 76, (2S)-4-[(5-chloro-2-hydroxy-3-sulfophenyl)carbamoyl]-2-(dimethylamino)butanoic acid]	1800
N[C@@H](CNC(=O)Nc1cccc(C(=O)O)c1O)C(=O)O [Example 90, 3-({[(2S)-2-amino-2-carboxyethyl]carbamoyl}amino)-2-hydroxybenzoic acid]	1000
N[C@@H](CCC(=O)Nc1cc(Cl)cc(S(=O)(=O)O)c1O)C(=O)NS(=O)(=O)c1ccccc1 [Example 62, 3-[(4S)-4-amino-4-[(benzenesulfonyl)carbamoyl]butanamide]-5-chloro-2-hydroxybenzene-1-sulfonic acid]	2300
Cc1cc(C)c(S(=O)(=O)O)cc1NC(=O)NC[C@H](N)C(=O)O [Example 89, (2S)-2-amino-3-{[(2,4-dimethyl-5-sulfophenyl)carbamoyl]amino}propano is acid]	1100
COc1cc(NC(=O)NC[C@H](N)C(=O)O)cc(C(=O)O)c1 [Example 101, 3-({[(2S)-2-amino-2-carboxyethyl]carbamoyl}amino)-5-methoxybenzoic acid]	3600
N[C@@H](CNC(=O)Nc1cc(S(=O)(=O)O)ccc1F)C(=O)O [Example 104, (2S)-2-amino-3-{[(2-fluoro-5-sulfophenyl)carbamoyl]amino}propanoic acid]	490
CC(=O)Nc1cc(S(=O)(=O)O)cc(NC(=O)NC[C@H](N)C(=O)O)c1O [Example 83, (2S)-2-amino-3-{[(3-acetamide-2-hydroxy-5-sulfophenyl)carbamoyl]amino}propanoic acid]	21100
COc1c(NC(=O)NC[C@H](N)C(=O)O)cccc1C(=O)O [Example 100, 3-({[(2S)-2-amino-2-carboxyethyl]carbamoyl}amino)-2-methoxybenzoic acid]	5800
Cc1ccc(C(=O)O)cc1NC(=O)NC[C@H](N)C(=O)O [Example 93, 3-({[(2S)-2-amino-2-carboxyethyl]carbamoyl}amino)-4-methylbenzoic acid]	5000
Cc1nnc([C@@H](N)CCC(=O)Nc2cc(Cl)cc(S(=O)(=O)O)c2O)o1 [Example 15, 3-[(4S)-4-amino-4-(5-methyl-1,3,4-oxadiazol-2-yl)butanamide]-5-chloro-2-hydroxybenzene-1-sulfonic acid]	180
N[C@@H](CSC(=O)Nc1cccc(S(=O)(=O)O)c1)C(=O)O [Example 4, (2R)-2-amino-3-{[(3-sulfophenyl)carbamoyl]sulfanyl}propanoic acid]	40
Cc1ccc(NC(=O)NC[C@H](N)C(=O)O)cc1C(=O)O [Example 99, 5-({[(2S)-2-amino-2-carboxyethyl]carbamoyl}amino)-2-methylbenzoic acid]	15000
COc1ccc(NC(=O)NC[C@H](N)C(=O)O)cc1S(=O)(=O)O [Example 81, (2S)-2-amino-3-{[(4-methoxy-3-sulfophenyl)carbamoyl]amino}propanoic acid]	3700
N#CCC[C@H](N)COC(=O)Nc1cc(Cl)cc(S(=O)(=O)O)c1O [Example 12, 3-({[(2S)-2-amino-4-cyanobutoxy]carbonyl}amino)-5-chloro-2-hydroxybenzene-1-sulfonic acid]	1100
CS(=O)(=O)NC(=O)[C@@H](N)CCC(=O)Nc1cc(Cl)cc(S(=O)(=O)O)c1O [Example 34, 3-[(4S)-4-amino-4-(methanesulfonylcarbamoyl)butanamide]-5-chloro-2-hydroxybenzene-1-sulfonic acid]	390
N[C@@H](CCC(=O)Nc1cc(Cl)cc(S(=O)(=O)O)c1O)C(=O)NCCc1cccc(Cl)c1 [Example 32, 3-[(4S)-4-amino-4-{[2-(3-chlorophenyl)ethyl]carbamoyl}butanamide]-5-chloro-2-hydroxybenzene-1-sulfonic acid]	1200
N[C@@H](CCC(=O)Nc1cc(Cl)cc(S(=O)(=O)O)c1O)C(=O)NNC(=O)Cc1ccccc1 [Example 17, 3-[(4S)-4-amino-5-oxo-5-(2-phenylacetohydrazide)pentanamide]-5-chloro-2-hydroxybenzene-1-sulfonic acid]	250
C[C@H](OC(=O)Nc1cccc(S(=O)(=O)O)c1)[C@H](N)C(=O)O [Example 43, (2S,3S)-2-amino-3-{[(3-sulfophenyl)carbamoyl]oxy}butanoic acid]	7000
COC(=O)[C@@H](N)CNC(=O)Nc1cc(Cl)cc(S(=O)(=O)O)c1O [Example 67, 3-({[(2S)-2-amino-3-methoxy-3-oxopropyl]carbamoyl}amino)-5-chloro-2-hydroxybenzene-1-sulfonic acid]	3
COc1ccc(S(=O)(=O)O)cc1NC(=O)NC[C@H](N)C(=O)O [Example 82, (2S)-2-amino-3-{[(2-methoxy-5-sulfophenyl)carbamoyl]amino}propanoic acid]	1000
Cc1c(Cl)cc(S(=O)(=O)O)cc1NC(=S)NC[C@H](N)C(=O)O [Example 47, (2S)-2-amino-3-{[(3-chloro-2-methyl-5-sulfophenyl)carbamothioyl]amino}propanoic acid]	4
N[C@@H](CCC(=O)Nc1cc(Cl)cc(S(=O)(=O)O)c1O)c1nnc(Cc2ccccc2)o1 [Example 16, 3-[(4S)-4-amino-4-(5-benzyl-1,3,4-oxadiazol-2-yl)butanamide]-5-chloro-2-hydroxybenzene-1-sulfonic acid]	880
N[C@@H](CNC(=O)Nc1cc(C(=O)O)cc([N+](=O)[O-])c1)C(=O)O [Example 92, 3-({[(2S)-2-amino-2-carboxyethyl]carbamoyl}amino)-5-nitrobenzoic acid]	1800
N[C@@H](CNC(=O)Nc1cccc(S(=O)(=O)O)c1)C(=O)O [Example 77, (2S)-2-amino-3-{[(3-sulfophenyl)carbamoyl]amino}propanoic acid]	18
CN[C@@H](CNC(=O)Nc1cc(Cl)c(C)c(S(=O)(=O)O)c1)C(=O)O [Example 79, (2S)-3-{[(3-chloro-4-methyl-5-sulfophenyl)carbamoyl]amino}-2-(methylamino)propanoic acid]	313
N[C@@H](CCC(=O)Nc1cccc(S(=O)(=O)O)n1)C(=O)O [Example 42, (2S)-2-amino-4-[(6-sulfopyridine-2-yl)carbamoyl]butanoic acid trifluoroacetic acid salt]	13000
N[C@@H](CNC(=O)Nc1cc(C(=O)O)ccc1Cl)C(=O)O [Example 88, 3-({[(2S)-2-amino-2-carboxyethyl]carbamoyl}amino)-4-chlorobenzoic acid]	2300
N[C@@H](CNC(=O)Nc1cccc(C(=O)O)c1)C(=O)O [Example 85, 3-({[(2S)-2-amino-2-carboxyethyl]carbamoyl}amino)benzoic acid]	1600
N[C@@H](CCC(=O)Nc1cc(Cl)cc(S(=O)(=O)O)c1O)C(=O)NO [Example 41, 3-[(4S)-4-amino-4-(hydroxycarbamoyl)butanamide]-5-chloro-2-hydroxybenzene-1-sulfonic acid]	39
